# Like-named read-outs stand apart in the source and are kept apart here.
# Experiments:
# [1] = test system: HBV; experiment: Antiviral activity against HBV in HepG2.2.15 cells, viral DNA by qPCR after 6 days; conditions: for HBV TI (CC50/EC50): HepG2; for EC50: read-out: HBV EC50 (HepG2)
# Protocol: (§1) Compounds synthesized were evaluated against HIV-infected PBMCs and antiviral activity was assessed by measuring reverse transcriptase in cell supernatants. Compounds 11a-e, 12a-e, and 13 were assayed against HBV and qPCR was used to quantify viral DNA following incubation in HepG2.2.15 cells after 6 days.
# [2] = test system: PBMCs; experiment: in vitro; assay type: cell-based, human
# [3] = test system: HepG2; experiment: Cytotoxicity: viability of uninfected HepG2 cells; assay type: cell-based; conditions: read-out: HBV CC50 (HepG2)
# [4] = test system: HIV-1; experiment: microbe, parasite or virus in culture; conditions: for TI(CC50/EC50): HIV-1, PBMCs
# Protocol: as §1
# [5] = monkeys; cited from earlier work
# [6] = rats; cited from earlier work
# [7] = Table 1, viability of uninfected cells reduced by 50%, read-out: HIV-1 CC50 (PBMCs)
# [8] = read-out: HIV-1 activity (EC50), PBMCs
# [9] = read-out: HIV-1 EC50 (PBMCs), Table 1, inhibit HIV-1 by 50%, average of triplicate
# [10] = Table 4, read-out: CC50 (PBMCs)
# [11] = read-out: EC50 (PBMCs), Table 4, HIV-1
# [12] = Table 2, read-out: HIV-1 CC50 (PBMCs)
# [13] = read-out: HIV-1 EC50 (PBMCs), Table 2
Compound,HBV TI (CC50/EC50) ([1]; Table 1),"EC50 ([1]; Table 1, inhibit HBV by 50%) [µM]","CC50 [2, 7] [µM]","CC50 ([3]; Table 1, uninfected cells) [µM]","HIV-1 TI (CC50/EC50) ([4]; Table 1, PBMCs)","EC50 [4, 8] [µM]","CC50 [2, 10] [µM]",TI(CC50/EC50) ([4]; Table 4),further results
CCCCCCCCCCSSCCOP(=O)(O)CO[C@H](C)Cn1cnc2c(N)ncnc21.N [Compound 11a],>1,> 50,> 50,> 50,>590,0.085,,,"fold less potent than TDF, HIV-1 ([4]; EC50 ratio vs TDF): 18 fold"
CCCCCCCCCCCCCCCCCCSSCCOP(=O)(O)CO[C@H](C)Cn1cnc2c(N)ncnc21.N [Compound 11e],>50,0.505,6.36,> 50,"11,000",,,,"EC50 [4, 9]: 0.0006 µM"
CCCCCCCCCCCCCCCCSSCCOP(=O)(COC(C)Cn1cnc2c(N)ncnc21)OCC (mixture of isomers) [Compound 14],,,,,,,36.2,104,"EC50 [4, 11]: 0.349 µM"
CCCCCCCCCCCCCCCCSSCCOP(=O)(COC(C)Cn1cnc2c(N)ncnc21)OCC(C)(C)C (mixture of isomers) [Compound 18],,,,,,0.14,> 100,>700,
CCCCCCCCCCCCCCCCCCOP(=O)(COC(C)Cn1cnc2c(N)ncnc21)OCCSSCCCCCCCCCCCCCCCC (mixture of isomers) [Compound 21],,,,,,0.911,> 50,>50,
CCCCCCCCCCCCCCCCSSCCOP(=O)(COC(C)Cn1cnc2c(N)ncnc21)OCCCC (mixture of isomers) [Compound 16],,,,,,,27.9,150,"EC50 [4, 11]: 0.19 µM"
CCCCCCCCCCCCSSCCOP(=O)(CO[C@H](C)Cn1cnc2c(N)ncnc21)OCCSSCCCCCCCCCCCC [Compound 12b],,,,,,,,,"HBV TI (CC50/EC50) ([1]; Table 2): >1; EC50 ([1]; Table 2): > 100 µM; CC50 [2, 12]: > 100 µM; CC50 ([3]; Table 2): > 100 µM; HIV-1 TI (CC50/EC50) ([4]; Table 2, PBMCs): >85.0; EC50 [4, 13]: 1.18 µM"
"tenofovir disoproxil fumarate [TDF, reference compound]",190,0.34,43.7,64.5,"9,500",0.0046,43.7,"9,500","HBV TI (CC50/EC50) ([1]; Table 2): 86; HBV TI (CC50/EC50) ([1]; Table 3): 190; EC50 ([1]; Table 2): 0.34 µM; EC50 ([1]; Table 3): 0.34 µM; CC50 [2, 12]: 43.7 µM; CC50 ([2]; Table 3, read-out: HIV-1 CC50 (PBMCs)): 44 µM; CC50 ([3]; Table 2): 29.2 µM; CC50 ([3]; Table 3): 64.5 µM; HIV-1 TI (CC50/EC50) ([4]; Table 2, PBMCs): 9,500; HIV-1 TI (CC50/EC50) ([4]; Table 3, PBMCs): 9,500; EC50 [4, 11]: 0.0046 µM; EC50 [4, 9]: 0.0046 µM; EC50 [4, 13]: 0.0046 µM; EC50 ([4]; read-out: HIV-1 EC50 (PBMCs), Table 3): 0.0045 µM"
CCCCCCCCCCCCSSCCOP(=O)(O)CO[C@H](C)Cn1cnc2c(N)ncnc21.N [Compound 11b],>30,1.67,25,> 50,"8,300",0.003,,,"fold more active than CMX-157, HIV-1 ([4]; vs CMX-157 (20 nM)): seven-fold"
Nc1ncnc2c1ncn2CCOCP(=O)(O)O [adefovir],,,,,,,,,bioavailability [5]: < 1%; bioavailability [6]: 8-11%
CCCCCCCCCCCCCCSSCCOP(=O)(CO[C@H](C)Cn1cnc2c(N)ncnc21)OCCSSCCCCCCCCCCCCCC [Compound 12c],,,,,,,,,"HBV TI (CC50/EC50) ([1]; Table 2): >1; EC50 ([1]; Table 2): > 100 µM; CC50 [2, 12]: > 100 µM; CC50 ([3]; Table 2): > 100 µM; HIV-1 TI (CC50/EC50) ([4]; Table 2, PBMCs): >529; HIV-1 potency compared to parent nucleoside TFV ([4]; in words): two-fold increase in activity; EC50 [4, 13]: 0.189 µM"

# Reference: patent US11801255B2, “Lipid disulfide prodrugs and uses related thereto” (priority 2017, dated 2023)
